Results on 1 molecule are retold here after publication PMC3454376, “Salidroside Improves Behavioral and Histological Outcomes and Reduces Apoptosis via PI3K/Akt Signaling after Experimental Traumatic Brain Injury” (PLoS ONE, 2012).

The test system of this experiment is mice subjected to controlled cortical impact injury. Kind of experiment: Brain water content (brain edema) after CCI. It is filed as in vivo. Conditions: day 1, vehicle 84.5±1.2%. The protocol:
All animal procedures were approved by the Animal Research Committee at Cheng Hsin General Hospital (Animal permit number […] 101-08), and all procedures complied with the Guide for the Care and Use of Laboratory Animals published by the US National Institutes of Health (NIH Publication No. 85-23, revised 1996). Animals were housed under a 12-h light/dark cycle and at constant temperature (21-25°C) and humidity (45-50%). They were allowed free access to pellet chow and water. TBI in mice was induced by a CCI injury model as previously described. Briefly, 8-week-old male C57BL/6 mice (weighing 22-25 g) were anesthetized through the use of intraperitoneal injection of sodium pentobarbital (65 mg/kg; Rhone Merieux, Harlow, UK) and placed in a stereotaxic frame. A 5 mm craniotomy was performed over the right parietal cortex, centered on the coronal suture and 0.1 mm lateral to the sagittal suture, and injury to dura was avoided. […] Body temperature was monitored throughout the surgery by a rectal probe; temperature was maintained at 37.0±0.5°C using a heated pad. […] To determine the optimal dose of salidroside, a pilot study was performed using 2 different doses (20 and 50 mg/kg) administered 10 min after injury, and neurological deficits and tissue damage were evaluated as the main outcomes. […]

Each structure is given as a SMILES string.

Turning to `OC[C@H]1O[C@@H](OCCc2ccc(O)cc2)[C@H](O)[C@@H](O)[C@@H]1O` [SALD, salidroside], the “brain water content, ipsilateral hemisphere” value reads like this: (20 mg/kg ip 10 min after CCI, sham 80.7±0.6%, P<0.05) 81.0±0.6%; (50 mg/kg ip 10 min after CCI, not significant) 82.2±1.1%.
